Assay results taken from ChEMBL document CHEMBL1201862, “PubChem BioAssay data set” (2004).
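The compound was tested at five concentrations on cells cultured in 96-well plates, with a 48-hour exposure period. Here, GI50 denotes the concentration required for 50% inhibition of growth.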 Calls of active or inactive are those of the source. No stated cut-off is given here; in the data, active = GI50 up to about 1.1 µM and inactive = higher.

Tests used:
Assay in all cases: NCI anticancer screen, dose series, 48 h
OVCAR-5 = system: OVCAR-5
CAKI-1 = system: CAKI-1
Malme-3M = system: Malme-3M
HT-29 = system: HT-29
EKVX = system: EKVX
COLO 205 = system: COLO 205
SW-620 = system: SW-620
UACC-257 = system: UACC-257
SF-295 = system: SF-295
RXF 393 = system: RXF 393
IGROV-1 = system: IGROV-1
UACC-62 = system: UACC-62
NCI-H226 = system: NCI-H226
LOX IMVI = system: LOX IMVI
SK-MEL-5 = system: SK-MEL-5
OVCAR-3 = system: OVCAR-3
HOP-62 = system: HOP-62
OVCAR-8 = system: OVCAR-8
U-251 = system: U-251
UO-31 = system: UO-31

Measured: GI50

CC12CC3(C)CC(C)(C1)CC(N=[N+]=[N-])(C2)C3
inactive: OVCAR-5 > 100 µM | CAKI-1 > 100 µM | Malme-3M > 100 µM | HT-29 > 100 µM | EKVX > 100 µM | COLO 205 > 100 µM | SW-620 > 100 µM | UACC-257 > 100 µM | SF-295 > 100 µM | RXF 393 > 100 µM | IGROV-1 > 100 µM | UACC-62 > 100 µM | NCI-H226 > 100 µM | LOX IMVI > 100 µM | SK-MEL-5 > 100 µM | OVCAR-3 > 100 µM | HOP-62 > 100 µM | OVCAR-8 > 100 µM | U-251 > 100 µM | UO-31 > 100 µM

S=c1sc2cscc2s1
inactive: OVCAR-5 69.2 µM | CAKI-1 16.8 µM | Malme-3M 12.6 µM | HT-29 44.1 µM | EKVX 19.5 µM | COLO 205 17.7 µM | SW-620 20.7 µM | UACC-257 22.3 µM | SF-295 54.1 µM | RXF 393 35.2 µM | IGROV-1 32.2 µM | UACC-62 18.2 µM | NCI-H226 15.5 µM | LOX IMVI 39.8 µM | SK-MEL-5 27.9 µM | OVCAR-3 19.5 µM | HOP-62 32.8 µM | OVCAR-8 21.7 µM | U-251 53.2 µM | UO-31 19.1 µM

Cc1[nH]c(=O)[nH]c(=O)c1/C=C/C(=O)NC(CO)C[S+]([O-])C[S+](C)[O-] (stereo not given)
inactive: OVCAR-5 135 µM | CAKI-1 4.93 µM | Malme-3M 12.2 µM | HT-29 125 µM | EKVX 16.4 µM | COLO 205 30 µM | SW-620 38.6 µM | UACC-257 21.8 µM | SF-295 15.6 µM | RXF 393 20.8 µM | IGROV-1 12.6 µM | UACC-62 12.5 µM | NCI-H226 17.5 µM | LOX IMVI 15.5 µM | SK-MEL-5 18 µM | OVCAR-3 7.87 µM | HOP-62 16.6 µM | OVCAR-8 28.4 µM | U-251 3.8 µM | UO-31 23.7 µM

S=c1nc(Nc2ccc(Br)cc2)c2c3c(sc2[nH]1)CN(N1CCc2c(sc4[nH]c(=S)nc(Nc5ccc(Br)cc5)c24)C1)CC3
inactive: OVCAR-5 16 µM | CAKI-1 > 50 µM | Malme-3M 44.1 µM | HT-29 15.5 µM | EKVX 35.2 µM | COLO 205 23.6 µM | SW-620 16.4 µM | UACC-257 28.6 µM | SF-295 19.1 µM | RXF 393 10.2 µM | IGROV-1 26.2 µM | UACC-62 15.1 µM | NCI-H226 20.8 µM | LOX IMVI 8.67 µM | SK-MEL-5 12 µM | OVCAR-3 25.1 µM | HOP-62 17.5 µM | OVCAR-8 > 50 µM | U-251 9.42 µM | UO-31 20.1 µM

O=C1C(c2ccc(C3=[N+]([O-])c4cc([N+](=O)[O-])ccc4C3=O)cc2)=[N+]([O-])c2cc([N+](=O)[O-])ccc21
inactive: OVCAR-5 > 10 µM | CAKI-1 > 10 µM | Malme-3M > 10 µM | HT-29 > 10 µM | EKVX > 10 µM | COLO 205 > 10 µM | SW-620 > 10 µM | UACC-257 > 10 µM | SF-295 > 10 µM | RXF 393 > 10 µM | IGROV-1 > 10 µM | UACC-62 > 10 µM | NCI-H226 > 10 µM | LOX IMVI > 10 µM | SK-MEL-5 > 10 µM | OVCAR-3 > 10 µM | HOP-62 66.7 µM | OVCAR-8 > 10 µM | U-251 > 10 µM | UO-31 > 10 µM

COc1ccc(C2C(N)=NCC2c2ccccn2)cc1 (stereo not given)
inactive: OVCAR-5 > 100 µM | CAKI-1 > 100 µM | Malme-3M > 100 µM | HT-29 > 100 µM | EKVX > 100 µM | COLO 205 > 100 µM | SW-620 > 100 µM | UACC-257 > 100 µM | SF-295 > 100 µM | RXF 393 > 100 µM | IGROV-1 > 100 µM | UACC-62 > 100 µM | NCI-H226 > 100 µM | LOX IMVI > 100 µM | SK-MEL-5 > 100 µM | OVCAR-3 > 100 µM | HOP-62 > 100 µM | OVCAR-8 > 100 µM | U-251 > 100 µM | UO-31 > 100 µM

COc1ccc(C2=C(Cl)c3cc(OC)c(OC)cc3C2Cl)cc1 (stereo not given)
inactive: OVCAR-5 15.5 µM | CAKI-1 15.4 µM | Malme-3M 19.1 µM | HT-29 14.8 µM | EKVX 16.9 µM | COLO 205 17.5 µM | SW-620 15.3 µM | UACC-257 17.1 µM | SF-295 15.4 µM | RXF 393 14.5 µM | IGROV-1 17.4 µM | UACC-62 14.6 µM | NCI-H226 21.3 µM | LOX IMVI 12.2 µM | SK-MEL-5 13.7 µM | OVCAR-3 16.8 µM | HOP-62 17.8 µM | OVCAR-8 16.5 µM | U-251 13.7 µM | UO-31 6.55 µM

NC(=S)N/N=C1\C(=O)Nc2c(Cl)cc(Cl)cc21
inactive: OVCAR-5 81.7 µM | CAKI-1 41.2 µM | Malme-3M 16.2 µM | HT-29 18.8 µM | EKVX 20.3 µM | COLO 205 20.2 µM | SW-620 30.5 µM | UACC-257 24.2 µM | SF-295 19.2 µM | RXF 393 16 µM | IGROV-1 22.5 µM | UACC-62 17.3 µM | NCI-H226 15.7 µM | LOX IMVI 18.3 µM | SK-MEL-5 14.4 µM | OVCAR-3 11.7 µM | HOP-62 13 µM | OVCAR-8 18.1 µM | U-251 19.5 µM | UO-31 28.1 µM

C1#Cc2ccccc2OCCOc2ccccc2C#Cc2ccccc2OCCOc2ccccc21
inactive: OVCAR-5 24 µM | CAKI-1 17.7 µM | Malme-3M 28.1 µM | HT-29 66.5 µM | EKVX 26.5 µM | COLO 205 30.1 µM | SW-620 34 µM | UACC-257 > 100 µM | SF-295 21.6 µM | RXF 393 14.7 µM | IGROV-1 15.6 µM | UACC-62 > 100 µM | NCI-H226 19.1 µM | LOX IMVI 16 µM | SK-MEL-5 18.2 µM | OVCAR-3 14 µM | HOP-62 8.77 µM | OVCAR-8 13.8 µM | U-251 12.5 µM | UO-31 46.7 µM

CC1=NN(C(=O)c2ccc(Cl)cc2)C(=O)C1/N=N/c1ccc(S(=O)(=O)Nc2ncccn2)cc1 (stereo not given)
inactive: OVCAR-5 > 100 µM | CAKI-1 > 100 µM | Malme-3M > 100 µM | HT-29 > 100 µM | EKVX > 100 µM | COLO 205 > 100 µM | SW-620 > 100 µM | UACC-257 > 100 µM | SF-295 > 100 µM | RXF 393 > 100 µM | IGROV-1 > 100 µM | UACC-62 > 100 µM | NCI-H226 > 100 µM | LOX IMVI > 100 µM | SK-MEL-5 > 100 µM | OVCAR-3 > 100 µM | HOP-62 > 100 µM | OVCAR-8 > 100 µM | U-251 > 100 µM | UO-31 > 100 µM
